In patent US20230190852A1, “COMPOSITIONS AND METHODS FOR JOINT HEALTH” (Unigen, Inc., priority 2013, published 2023):
“And” between values parts separate entries of the source, which are not always exact repeats. Equal values may be shown once. Marks after values point to notes of the source that are not given here.

Tested on: Lewis rats
Assay: Carrageenan-induced rat paw edema model (paw edema and pain sensitivity)
Format: in vivo
Settings: for Pain sensitivity (Analgesia), percent change vs. vehicle, 1 hr / Paw Edema (Inflammation), percent change vs. vehicle, 1 hr: 1 hr after treatment; for Pain sensitivity (Analgesia), percent change vs. vehicle, 5 hr / Paw Edema (Inflammation), percent change vs. vehicle, 5 hr: 5 hr after treatment; for Pain sensitivity, percent change of vehicle / Paw edema, percent change of vehicle: 200 mg/kg oral 1 hr after carrageenan, female Lewis rats, 200 mg/kg
Protocol: Local inflammation was induced by intraplantar injection of carrageenan λ (Sigma, St. Louis, Mo.; 100 μl of 1% [w/v] in saline) into the plantar surface of right hind paw of sedated rat (with 2.5% isoflurane) at time 0 (T=0) (Gamache et al., J Neurosurg. 65:679, 1986; Guay et al., J. Biol. Chem. 279:24866, 2004; Chou et al., Anesth. Analg. 97:1724, 2003). Rats were acclimated in a procedure room for 20-30 minutes before each measurement was taken. Allodynia was evaluated by measuring responsiveness to the tip of a Randell-Selitto paw pressure test applied perpendicular to the central plantar surface of the right hind paw. A positive response to the applied pressure, noted by sharp withdrawal of the paw, was recorded automatically by an electronic Von Frey Anesthesiometer (2390 series Electrovonfrey, IITC, Woodland Hills, Calif.) (Vivancos et al., Braz. J. Med. Biol. Res. 37:391, 2004). Mechanical allodynia was evaluated before carrageenan inoculation, and thereafter at 1 hr, 2 hr, 4 hr and 6 hr. Paw edema volume was measured with the use of Plethysmometer (IITC, Woodland Hills, Calif.; Model 520) at time 0 (before carrageenan), and then 1 hr, 2 hr, 4 hr, and 6 hr after carrageenan injection. Animals (N=5 per group) were orally gavaged with a positive control ibuprofen (Spectrum Chemical MFG, Gardena, Calif.) (100 or 200 mg/kg); test articles such as: extracts, and combinations of extracts at various doses from 100, 200, 300 to 400 mg/kg and vehicle control (propylene glycol) were given 1 hour after carrageenan inoculation unless specified otherwise.

[1] = 200 mg/kg oral, listed as ibuprofen
[2] = 200 mg/kg oral, 3 hr after treatment

CC(C)Cc1ccc(C(C)C(=O)O)cc1 (centres unmarked) [Ibuprofen]
Pain sensitivity (Analgesia), percent change vs. vehicle, 1 hr (200 mg/kg oral): 55.6* % and 55.1* % and 52.9* %
Paw Edema (Inflammation), percent change vs. vehicle, 1 hr (200 mg/kg oral): 43.5* % and 39.5* % and 44.6* %
Pain sensitivity (Analgesia), percent change vs. vehicle, 1 hr [1]: 55.1%
Paw Edema (Inflammation), percent change vs. vehicle, 1 hr [1]: 39.5%
Pain sensitivity (Analgesia), percent change vs. vehicle, 3 hr [2]: 62.7* % and 70.3* % and 62.5* %
Paw Edema (Inflammation), percent change vs. vehicle, 3 hr [2]: 58.0* % and 50.4* % and 54.9* %
Paw Edema (Inflammation), percent change vs. vehicle, 3 hr (200 mg/kg oral, 3 hr after treatment, listed as ibuprofen): 50.4%
Pain sensitivity (Analgesia), percent change vs. vehicle, 5 hr (200 mg/kg oral): 44.6* % and 50.8* % and 48.8* %
Paw Edema (Inflammation), percent change vs. vehicle, 5 hr (200 mg/kg oral): 50.3* % and 46.6* % and 50.0* %
Pain sensitivity (Analgesia), percent change vs. vehicle, 5 hr [1]: 50.8%
Paw Edema (Inflammation), percent change vs. vehicle, 5 hr [1]: 46.6%
Pain sensitivity, percent change of vehicle (1 hr): 57.1* % and 55.4* % and 56.4* % and 56.1* % and 53.7* % and 52.4* % and 58.6* %
Paw edema, percent change of vehicle (1 hr): 53.2* % and 51.6* % and 53.9* % and 57.2* % and 54.2* % and 53.0* % and 52.5* %
Pain sensitivity, percent change of vehicle (3 hr): 61.5* % and 65.9* % and 62.2* % and 59.7* % and 64.0* %
Paw edema, percent change of vehicle (3 hr): 64.3* % and 61.9* % and 59.0* % and 67.6* % and 57.7* % and 60.1* % and 62.9* %
Pain sensitivity, percent change of vehicle (5 hr): 44.3* % and 49.3* % and 45.0* % and 47.9* % and 47.5* % and 43.3* % and 50.7* %
Paw edema, percent change of vehicle (5 hr): 50.6* % and 50.0* % and 52.6* % and 53.5* % and 48.6* % and 51.3* % and 51.6* %
